Assays:
[1] = test system: 6WI-1 mammary tumor cells; test: Mouse ascites mammary tumor assay (6WI-1 isograft); assay type: in vivo; settings: for Suppression of accumulation of cells and ascites fluid volume (anticancer activity): 1.0 μg peptide per day for 11 days; for % Inhibition Of Activity: 6WI-1 Acites Volume / % Inhibition Of Activity: 6WI-1 Body Weight / % Inhibition Of Activity: 6WI-1 Cell Prol: 6WI-1 mouse mammary ascites tumor
Method: The growth suppression of the mammary ascites tumor by AFP peptides and its fragments P149a, P149b and P149c, and control peptides were determined in non-estrogen dependent assays which measured tumor cell growth and ascites accumulation of 6WI-1 mammary transplanted NYLAR/nya mice. […] Tumor cell inocula included doses of 0.3, 1.0, and 3.0×10^6 cells which produced host mortality at 12-14 days which was lethal in 100% of the animals. Following peptide dose titration studies, mice inoculated with 6WI-1 mammary cells were injected with a previously-determined optimal dose of 1.0 μg peptide per day or saline for 11 days. On day 12 following inoculation, the total accumulated ascites fluid volume and tumor cells in the peritoneal cavity of each animal were harvested and the cell count determined.
Inoculation of mice with all three cell doses led to an increase in body weight from 25 g (day 0) to approximately […] by day 12, due to the accumulation of tumor cells and ascites fluid in the intraperitoneal cavity. An average cell count in accumulated ascites fluid on day 12 was greater than 10^8 cells/ml with a total ascites volume approximating 20 mls. Tumor cell proliferation in this model has been reported to correlate with the volume of ascites fluid accumulated.
The 6WI-1 mouse mammary tumor studies involving peptide and non-peptide treatment were further compared by histopathological analysis performed on hematoxylin/eosin stained tissue sections.

[2] = test system: 6WI-1 mammary tumor cells; test: 6WI-1 mammary tumor in 15-day old mouse pups (6 day assay); assay type: in vivo; parameters: % Inhibition Of Activity: 6WI-1 Pup Ascites: concentration or dose not given beside the values; settings: mouse pups
Description: As an alternative model of the 6WI-I mammary tumor in adult mice, an inocula of 1×10^6 tumor cells injected into 15-day old mouse pups provided a 6 day rather than a 12 day assay and replicated the same tumor growth suppression by GIP.

[3] = test system: MCF-7 cells; test: Estrogen-dependent MCF-7 foci formation assay; assay type: cell-based, human; parameters: % Inhibition Of Activity: MCF-7 foci formation: concentration or dose not given beside the values
Description: Mizejewski et al., “Alpha-fetoprotein derived synthetic peptides: assay of an estrogen-modifying regulatory segment” Mol Cell Endocrinol 118:15-23 (1996). The P149 peptide inhibited the formation of tumor cell foci formed as a result of the accumulation of breast cancer cells which clump together due to loss of contact inhibition.

[4] = test system: human platelets; test: Platelet aggregation in human platelet-rich plasma; assay type: cell-based; parameters: % Inhibition Of Activity: Platelet Agg. ADP / % Inhibition Of Activity: Platelet Agg. AA / % Inhibition Of Activity: Platelet Agg. Coll: concentration or dose not given beside the values; settings: for % Inhibition Of Activity: Platelet Agg. ADP: ADP-induced; for % Inhibition Of Activity: Platelet Agg. AA: arachidonic acid-induced; for % Inhibition Of Activity: Platelet Agg. Coll: collagen-induced; for Inhibition (%) Of Platelet Aggregation, Adenosine Diphosphate (ADP) 2.5 μM / Inhibition (%) Of Platelet Aggregation, Arachidonic Acid (AA) 0.3 mM / Inhibition (%) Of Platelet Aggregation, Collagen (COLL) 2 μg/ml / Inhibition (%) Of Platelet Aggregation, Epinephrine: peptide inhibitors 30 & 100 μM
Method: FIG. 9 presents exemplary data showing platelet aggregation modulation using 0.5 ml of normal human platelet-rich plasma (PRP) with varying amounts of P149 or P 149b using 2.5×10^6 platelets per reaction vessel.
FIG. 10 presents exemplary data showing platelet aggregation activation by arachidonic acid (AA) and collagen using P149-treated platelet suspensions • Panel A1: AA alone; • Panel A2: AA followed by epinephine (EPI) and EPI alone using P149b; • Panel A3: CD62P flow cytometry fluorescence quenching by P149; • Panel B1: collagen alone and collagen+P149; • Panel B2: collagen alone; collagen+P149a showing aggregation diminution.
GIP-derived peptide fragments and/or subfragments have been assayed for platelet aggregation by measuring light transmissions with an aggregometer using a stirred human platelet suspension. Kinlough-Rathbone et al., In: Platelet Aggregation in Measurements of Platelet Function, Eds. Harker L A, Zimmerman T S., Churchill Livingstone, London. pp. 64-87 (1983); and Whittle et al., “Specificity between the anti-aggregatory actions of prostacyclin, prostaglandin Eland D2 on platelets” In: Mechanisms of stimulus—response coupling in platelets, Eds. V. V. K., MacIntyre D E, Scully M F., New York and London: Plenum Press. pp. 109-115 (1985).
The ability of GIP and its fragments were individually examined for aggregation inhibition using citrated human platelet-rich plasma (PRP). The peptides were freshly dissolved in 0.15 M NaCl containing 2.5×10^6 platelets/ml. […]

[5] = test system: immature mouse uterine growth; test: E2-activated immature mouse uterine growth assay; assay type: in vivo; parameters: % Inhibition Of Activity: Uterine Growth: concentration or dose not given beside the values; settings: mouse, in vivo
Method: FIG. 3 presents exemplary data showing the growth suppressive activities of the oligomeric forms of P149, cyclic versus linear, are depicted in various in vitro and in vivo models. Biological activity was determined by three growth-dependent bioassays, namely; • Panel-A and A1) an immature rodent uterine bioassay; • Panel-B and B 1) an in vitro MCF-7 foci assay; • Panel-C and C1) an in vitro tumor cell cytostatic assessment. […] See text for details. Scrambled peptide=P327. […]

[6] = test system: MCF-7 and 6WI-1 tumor cells; test: Tumor cell adhesion to ECM proteins in microtiter plates; assay type: cell-based, human, murine
Method: FIG. 8 presents exemplary data showing the inhibition of P149 in the cellular adhesion of cancer cells to extracellular matrix (ECM) proteins for both human MCF-7 breast cancer cells and for murine 6WI-1 ascites-adapted mammary tumor cells. The cellular adhesion assay was performed in 96-well microtiter plates (Nunc Company, Denmark, catalog #263339) and the wells were pre-coated with 100 microliters of each of the above-mentioned ECM proteins for 24 hours as previously determined. After adding tumor cells, the plates were then incubated at 37° C. for various times; while 6WI-1 cells usually required only 2-4 hours incubation for adhesion; MCF-7 cells required 24 hours for attachment following trypsinization. For both cell lines, the cell culture media contained 5% calf serum to ensure cell attachment. The plates were washed twice with Hank's Saline, fixed in 0.5 mL of 37% formaldehyde, stained with crystal violet and read at […] on a microplate reader. Inset: Using a CyQUANT® stain kit, (Hoechst Corp., Germany) the plates were first exposed to a freeze/thaw cycle at −70° C. for 24 hours and 37° C. for 10 minutes. CyQUANT® buffer solution (150 microliters) was added to each well, and the cell adhesion was measured by fluorescence spectroscopy and quantitated using an ImageQuant® plate scanner (Fluorimager 595, Molecular Dynamics, Sunnyvale, Calif.).
This attachment of GIP was a slightly weaker adhesion matrix than was gelatin, chondroitin sulfate, and poly-lysine which approximated 30-35%. Using P149, the optimal amount of peptide required to inhibit tumor cell adhesion was determined by absorbing soluble peptide (1.0 pg to 100 μg) to the walls of microtiter plates. A constant number of MCF-7 tumor cells (i.e., for example, 1×10^5) were then added to the microtiter well and adhesion quantitated by fluorescence. […] The quantitation of MCF-7 and 6WI-1 cell adhesion in the presence of peptide versus peptide-free media was then determined on ECM-coated microtiter plates using 3 μg GIP/well as a competitive inhibitor. The P149 peptide was added to the wells immediately after the cells were dispensed and then the mixture was incubated as described. The AFP peptide was capable of cell adhesion inhibition in most of the ECM proteins in both tumor cell lines. Inhibition of mouse and human tumor cell adhesion was somewhat equivalent using collagen IV, fibrinogen, fibronectin, and thrombospondin. […] Thus, the GIP was found capable of eliciting different attachment inhibitions dependent on the type of ECM protein coating the wall of the microtiter plate and also the tumor cell type involved.

[7] = Estrogen fetotoxicity; parameters: concentration or dose not given beside the values; settings: in vivo
[8] = test system: human kidney tumor cell line
[9] = test system: immature mouse uterine growth; test: E2-activated immature mouse uterine growth assay; assay type: in vivo; parameters: concentration or dose not given beside the values

| Molecule | Suppression of accumulation of cells and ascites fluid volume (anticancer activity) [1] | % Inhibition Of Activity: 6WI-1 Acites Volume [1] [%] | % Inhibition Of Activity: 6WI-1 Body Weight [1] [%] | % Inhibition Of Activity: 6WI-1 Cell Prol [1] [%] | % Inhibition Of Activity: 6WI-1 Pup Ascites [2] [%] | % Inhibition Of Activity: MCF-7 foci formation [3] [%] | % Inhibition Of Activity: Platelet Agg. ADP [4] [%] | % Inhibition Of Activity: Platelet Agg. AA [4] [%] | % Inhibition Of Activity: Platelet Agg. Coll [4] [%] | Inhibition (%) Of Platelet Aggregation, Adenosine Diphosphate (ADP) 2.5 μM [4] | Inhibition (%) Of Platelet Aggregation, Arachidonic Acid (AA) 0.3 mM [4] | Inhibition (%) Of Platelet Aggregation, Collagen (COLL) 2 μg/ml [4] | Inhibition (%) Of Platelet Aggregation, Epinephrine [4] | % Inhibition Of Activity: Uterine Growth [5] [%] | % Inhibition Of Activity: Cell Adhesion [6] [%] | % Inhibition Of Activity: Estrogen Fetotoxicty [7] [%] | % Inhibition Of Activity: Kidney tumor growth [8] [%] | % Inhibition Of Activity: Uterine Growth, Enzymatic Fragments [9] [%] | other results |
| --- | --- | --- | --- | --- | --- | --- | --- | --- | --- | --- | --- | --- | --- | --- | --- | --- | --- | --- | --- |
| AADIIIGHLCIRHE (listed as Homo sapiens) [P149b] | but not P149a or P149b, significantly suppressed | 26 | 31 | 34 | 32 | 31 | 95 | 100 | 90 | 95-98% | 100% | 90% | No effect | 22 | 58 | 67 | 50 | 19 | Inhibition of ADP-induced platelet aggregation (FIG. 9) ([4]; 0.5 ml PRP, 2.5×10^6 platelets per reaction vessel): 70%; Inhibition of ADP-induced platelet aggregation ([4]; ADP 3 μM, P149 at 100-300 μM PRP): 80-90%; Inhibition of arachidonic acid (AA)-induced platelet aggregation ([4]; for several minutes until epinephrine was added): complete aggregation inhibition |
| HPEAKRMPCAEDYLSVVLNQLCVLEHKTPVSDRV (listed as Homo sapiens) [P263, reference compound] | – | 10 | 13 | 5 | 0 | 0 | 0 | 0 | 0 | – | – | – | – | 0 | 0 | 0 | 0 | 0 | % Inhibition Of Activity: 6WI-1 Peptide Combos ([1]; peptide combination): 0% |
| LSEDKLLACGEG (listed as Homo sapiens) [P149a] | but not P149a or P149b, significantly suppressed | 21 | 22 | 28 | 21 | 33 | 40 | 0 | 0 | 30-40 (biphasic % | No effect | No effect | No effect | 28 | – | 63 | 25 | 24 | – |
| Risotcetin [reference compound] | – | – | – | – | – | – | – | – | – | 100% | 100% | 100% | 100% | – | – | – | – | – | – |
| α2-antiplasma: positive control in the platelet aggregation assay (protein, UniProt P08697 40-491, looked up) Alpha-2-antiplasmin: NQEQVSPLTLLKLGNQEPGGQTALKSPPGVCSRDPTPEQTHRLARAMMAFTADLFSLVAQTSTCPNLILSPLSVALALSHLALGAQNHTLQRLQQVLHAGSGPCLPHLLSRLCQDLGPGAFRLAARMYLQKGFPIKEDFLEQSEQLFGAKPVSLTGKQEDDLANINQWVKEATEGKIQEFLSGLPEDTVLLLLNAIHFQGFWRNKFDPSLTQRDSFHLDEQFTVPVEMMQARTYPLRWFLLEQPEIQVAHFPFKNNMSFVVLVPTHFEWNVSQVLANLSWDTLHPPLVWERPTKVRLPKLYLKHQMDLVATLSQLGLQELFQAPDLRGISEQSLVVSGVQHQSTLELSEVGVEAAAATSIAMSRMSLSSFSVNRPFLFFIFEDTTGLPLFVGSVRNPNPSAPRELKEQQDSPGNKDFLQSLKGFPRGDKLFGPDLKLVPPMEEDYPQFGSPK | – | – | – | – | – | – | – | – | – | 85-90% | 100% | 90% | No effect | – | – | – | – | – | – |

From patent publication US20060111289A1, “Compositions and methods of using Alpha-fetoprotein growth inhibitory peptides” (Serometrix, LLC,, priority 2004, published 2006)
